This is an account of results in publication PMC6057649, “Development of NanoLuc-PEST expressing Leishmania mexicana as a new drug discovery tool for axenic- and intramacrophage-based assays” (PLoS Neglected Tropical Diseases, 2018).

This experiment concerns NanoLuc-PEST expressing L. mexicana axenic amastigotes. Kind of experiment: microbe, parasite or virus in culture. It is filed as cell-based. The note with it: for Relative Bioluminescence (%) / viability at 2 µM / viability at 10 µM: 72 hours, relative to DMSO only control, n = 4; for viability at 2 µM / viability at 10 µM: Leishmania mexicana, read-out: Relative Bioluminescence (%).

SMILES strings stand for the structures.

As for `c1ccc(-c2cc(N3CCCCC3)c3ccccc3n2)nc1` [MMV560185], the “Relative Bioluminescence (%)” value (2 µM compound) is reported as 64.27% and the “Relative Bioluminescence (%)” value (10 µM compound) turned out to be 94.77%.
In the same order, the values of `CCC(Sc1nc2ccccc2o1)C(=O)Nc1nnc(C)s1` (stereo not drawn) [MMV611037] are 55.30% and 44.60%.
The corresponding values for `O=C(NCCN1CCCC1)c1cc(NCCN2CCOCC2)nc2ccc(Cl)cc12` [MMV634140] are 112.61% and 73.96%.
Take `CN1CCC[C@@H]1CCO[C@](C)(c1ccccc1)c1ccc(Cl)cc1` [MMV637229, Clemastine, reference compound]: the viability at 2 µM (2 µM compound) was determined as 47.3%. Moreover, the viability at 10 µM (10 µM compound) turned out to be 11.2%.
The corresponding values for `Cc1ccc(C(=O)Nc2ccc(S(=O)(=O)O)c3cc(S(=O)(=O)O)cc(S(=O)(=O)O)c23)cc1NC(=O)c1cccc(NC(=O)Nc2cccc(C(=O)Nc3cc(C(=O)Nc4ccc(S(=O)(=O)O)c5cc(S(=O)(=O)O)cc(S(=O)(=O)O)c45)ccc3C)c2)c1` [MMV637953, Suramin, reference compound] are 105% and 117%.
`Cc1nc(-c2ccccn2)nc(N(C)CCc2ccccc2)c1Cl` [MMV658988]: the “Relative Bioluminescence (%)” value is, setting by setting: (2 µM compound) 32.93%; (10 µM compound) -2.26%.
With `Cc1nc(-c2ccccn2)nc(NCCc2ccc(S(C)(=O)=O)cc2)c1Cl` [MMV658993], the “Relative Bioluminescence (%)” value runs as follows: (2 µM compound) 93.82%; (10 µM compound) 64.93%.
In the same order, the values of `Cc1nc(-c2ccccn2)nc(N2CCC(Cc3ccccc3)C2)c1Cl` (stereo not drawn) [MMV659004] are 73.83% and -1.44%.
With `FC(F)(F)c1cc(NCCc2ccccc2)nc(-c2ccccn2)n1` [MMV659010], the “Relative Bioluminescence (%)” value worked out at 95.95% (2 µM compound) and 88.01% (10 µM compound).
The corresponding values for `Brc1cncc(-c2cc(NCCCn3ccnc3)nc(-c3ccccc3)n2)c1` [MMV661713] are 76.01% and 83.31%.
In the same order, the values of `Clc1cccc(C(c2ccc(CN3CCNCC3)cc2)n2ccnc2)c1` (stereo not drawn) [MMV663250] are 96.52% and 69.77%.
In the same order, the values of `O=C(NCCN1CCCC1)c1cc(NCCCCN2CCC(F)(F)CC2)nc2ccc(Cl)cc12` [MMV667494] are 55.75% and 61.89%.
For the compound `Nc1ncc(-c2ccc(C(F)(F)F)nc2)cc1-c1ccc(C(F)(F)F)nc1` [MMV668727], the “Relative Bioluminescence (%)” value is on record as 68.46% (2 µM compound) and 78.89% (10 µM compound).
In the same order, the values of `Cc1[nH]c2cc(F)cc(F)c2c(=O)c1-c1ccc(Oc2ccc(OC(F)(F)F)cc2)cc1` [MMV671636] are 40.19% and 3.97%.
In the same order, the values of `COc1ccc(OC)c(NCc2ccc3nc(N)nc(N)c3c2Cl)c1` [MMV675968] are 100.09% and 86.04%.
The corresponding values for `CC(C)(C)c1ccc(N[C@@H]2CCCC[C@H]2NC(=O)c2ccco2)cc1` [MMV675969] are 104.76% and 77.56%.
Regarding `COc1ccc(-c2nn(C(C)C)c3ncnc(N)c23)cc1OC` [MMV675993], the “Relative Bioluminescence (%)” value is 66.21% (2 µM compound) and 27.37% (10 µM compound).
The corresponding values for `Clc1ccc(-n2cc(COc3ccnc4ccccc34)nn2)cc1` [MMV675994] are 74.96% and 81.16%.
In the case of `COc1ccc(N(CCc2cccc(C)n2)C(C)=O)cc1` [MMV675995], the “Relative Bioluminescence (%)” value came out at 51.88% (2 µM compound) and 31.11% (10 µM compound).
The corresponding values for `COc1ccc(N(CCc2cccc(C)n2)C(=O)C2CCCCC2)cc1` [MMV675996] are 63.13% and 25.83%.
Turning to `N#CCN(CCCCN1CCN(c2ccc(F)cc2)CC1)C(=O)OCc1ccccc1` [MMV675997], the “Relative Bioluminescence (%)” value was 116.18% (2 µM compound) and 97.48% (10 µM compound).
The corresponding values for `COc1ccc(C(=N)N)cc1-c1cn(-c2ccc(C(=N)N)cc2)nn1` [MMV675998] are 92.81% and 65.21%.
In the same order, the values of `O=C(Nc1c(O)cccc1-c1nc2c(C(=O)O)cccc2o1)c1cc(-c2ccccc2)on1` [MMV676008] are 79.00% and -1.15%.
The corresponding values for `Clc1ccc(Cl)c(CO[C@H]2CCCC[C@@H]2n2ccnc2)c1` [MMV676048] are 104.27% and 53.90%.
Regarding `CS(=O)(=O)N1CCC(Cn2nc(Cc3cccc4ccccc34)c3c(N)ncnc32)CC1` [MMV676050], the “Relative Bioluminescence (%)” value reads like this: (2 µM compound) 74.33%; (10 µM compound) 42.99%.
In the same order, the values of `COc1cc(NC(=O)Cc2nn(C)c(=O)c3ccccc23)ccc1Cl` [MMV676053] are 106.26% and 78.76%.
In the same order, the values of `CC(C)(C)OC(=O)N1CCN(c2cc(-c3ccc(Oc4ccccc4)cc3)n[nH]2)CC1` [MMV676057] are 119.16% and 36.52%.
In the same order, the values of `CCCCc1ccc(NC(=O)Nc2ccc(O[C@H]3CCCC[C@@H]3N(C)c3ccccc3)c(F)c2)cc1` [MMV676063] are 99.42% and 66.65%.
On to `CC(=O)N(CCN(C(=O)c1ccc(F)cc1)c1ccccc1)c1ccccc1` [MMV676064], for which the “Relative Bioluminescence (%)” value runs as follows: (2 µM compound) 105.34%; (10 µM compound) 123.90%.
In the same order, the values of `Clc1cccc(CO[C@H]2CCc3ccccc3[C@@H]2n2ccnn2)c1` [MMV676159] are 101.47% and 98.27%.
In the case of `c1ccc(Oc2ccc(-c3cc(CN4CCOCC4)[nH]n3)cc2)cc1` [MMV676161], the “Relative Bioluminescence (%)” value by setting is: (2 µM compound) 108.65%; (10 µM compound) 116.07%.
In general, EC50 refers to the concentration giving half of the maximal effect. Consider `O=C(Nc1ccccc1-c1nc2c(C(=O)O)cccc2o1)c1ccccc1` [MMV676162], for which the “Relative Bioluminescence (%)” value (2 µM compound) was 7.36% and the “Relative Bioluminescence (%)” value (10 µM compound) is -0.97%. Besides, under “hit compounds from the axenic amastigote screen, S3 Table, read-out: EC50, Axenic Amastigotes”, the EC50 stood at 0.96 µM.
As to `Nc1ncnc2c1c(Cc1cccc3ccccc13)nn2CC1CCNCC1` [MMV676182], the “Relative Bioluminescence (%)” value is, setting by setting: (2 µM compound) 78.18%; (10 µM compound) 53.64%.
The corresponding values for `COC(=O)c1cccc2oc(-c3cccc(OC)c3NC(=O)c3cc(-c4ccccc4)on3)nc12` [MMV676186] are 83.95% and 21.54%.
Regarding `CC(C)C(Oc1cccc2ccccc12)C(=O)O` (stereo not drawn) [MMV676191], the “Relative Bioluminescence (%)” value runs as follows: (2 µM compound) 107.96%; (10 µM compound) 94.76%.
In the same order, the values of `O=C(c1ccc(F)cc1)N(CCNc1ccccc1)c1ccccc1` [MMV676204] are 116.49% and 99.37%.
With `CN1CCN(c2nccc3nc(-c4ccc(F)c(F)c4)[nH]c23)CC1` [MMV676260], the “Relative Bioluminescence (%)” value is, setting by setting: (2 µM compound) 69.43%; (10 µM compound) 85.22%.
